Data on 2 compounds can be found in patent US20050289668A1, “Plants with increased levels of one or more amino acids” (priority 2003, published 2005).

Assay [1] addresses Arabidopsis threonine deaminase, mutant OMR1 (polynucleotide SEQ ID NO: 22). The following applies: mutant Arabidopsis (OMR1) TD, comparison data, cited from earlier work.
The target of assay [2] is T1, E. coli threonine deaminase (ilvA), wild type, SEQ ID NO: 2 (Escherichia coli, UniProt P04968, A120R/A140R/G195C/G334V/V121L).
T1 construct: made in house; host or cells: E. coli (crude extract)
T1 sequence (P04968 whole entry A120R/V121L/A140R/G195C/G334V): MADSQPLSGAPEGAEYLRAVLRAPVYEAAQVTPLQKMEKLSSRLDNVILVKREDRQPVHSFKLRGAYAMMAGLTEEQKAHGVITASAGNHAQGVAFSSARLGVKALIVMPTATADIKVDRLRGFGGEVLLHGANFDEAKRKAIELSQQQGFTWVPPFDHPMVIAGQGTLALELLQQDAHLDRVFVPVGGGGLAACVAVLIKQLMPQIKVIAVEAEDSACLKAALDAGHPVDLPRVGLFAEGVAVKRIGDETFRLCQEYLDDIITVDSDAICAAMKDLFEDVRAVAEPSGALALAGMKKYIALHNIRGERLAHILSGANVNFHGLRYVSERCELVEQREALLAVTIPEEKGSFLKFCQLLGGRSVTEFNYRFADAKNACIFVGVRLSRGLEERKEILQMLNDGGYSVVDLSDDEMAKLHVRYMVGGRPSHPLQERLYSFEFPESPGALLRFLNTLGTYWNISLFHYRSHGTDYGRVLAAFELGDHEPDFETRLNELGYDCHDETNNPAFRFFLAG
Kind of assay: Threonine deaminase steady state kinetics, E. coli wild type. The format is biochemical. The method, then:
(§1) Before conducting further transformation experiments using the isolated ilvA alleles in transgenic plants, each allele was over-expressed in E. coli to determine its kinetic parameters. Kinetics data on threonine deaminases containing various mutations, and a comparison to data available for threonine deaminases from Arabidopsis, are provided in Table 4. The E. coli ilvA481 variants were subcloned into pSE380 (Invitrogen, Carlsbad, Calif.) and expression was induced with 0.2 mM IPTG at 37° C. for 3 hours. Expression of the E. coli alleles was high and fairly consistent as visualized by SDS-PAGE.
(§2) The effects of amino acid substitutions at Leu481 in ilvA were assessed by steady state kinetic analysis in the presence and absence of L-isoleucine. Threonine deaminase polypeptides for use in in vitro kinetics studies were extracted from E. coli cells in assay buffer containing 50 mM potassium phosphate (pH7.5), 1 mM dithiothreitol (DTT), and 0.5 mM ethylenediamine-tetraacetate. A continuous assay method was employed to monitor the formation of α-ketobutyrate directly at 230 nm (ε230 (pH7.5)=540 M^−1cm^−1 whereas threonine absorption was negligible (˜1%)). […] The kinetic parameters were determined by fitting the data points to the equations using GraFit 4.0 software (Erithacus Software, Surrey, UK). […]

In assay [3] the target is T2, E. coli threonine deaminase (ilvA) variant L481P, SEQ ID NO: 6 (Escherichia coli, UniProt P04968, A120R/A140R/G195C/G334V/L481P/V121L).
T2 construct: made in house; host or cells: E. coli (pSE380, crude extract)
T2 sequence (P04968 whole entry A120R/V121L/A140R/G195C/G334V/L481P): as the sequence (P04968 whole entry A120R/V121L/A140R/G195C/G334V) above, with L481P counted along it
The assay can be described thus: Threonine deaminase steady state kinetics, L481P. It counts as biochemical. The method, then:
as §1, §2

The target in assay [4] is T3, E. coli threonine deaminase (ilvA) variant L481F (ilvA466), SEQ ID NO: 4 (Escherichia coli, UniProt P04968, A120R/A140R/G195C/G334V/L481F/V121L).
T3 construct: made in house; host or cells: E. coli (pSE380, crude extract)
T3 sequence (P04968 whole entry A120R/V121L/A140R/G195C/G334V/L481F): as the sequence (P04968 whole entry A120R/V121L/A140R/G195C/G334V) above, with L481F counted along it
The assay can be described thus: biochemical. It counts as biochemical. The method, then: as §1, §2

Assay [5] addresses T4, E. coli threonine deaminase (ilvA) variant L481E, SEQ ID NO: 7 (Escherichia coli, UniProt P04968, A120R/A140R/G195C/G334V/L481E/V121L).
T4 construct: made in house; host or cells: E. coli (pSE380, crude extract)
Kind of assay: Threonine deaminase steady state kinetics, L481E. The format is biochemical. The method, then: as §1, §2

The target in assay [6] is T5, E. coli threonine deaminase (ilvA) variant L481Q, SEQ ID NO: 9 (Escherichia coli, UniProt P04968, A120R/A140R/G195C/G334V/L481Q/V121L).
T5 construct: made in house; host or cells: E. coli (pSE380, crude extract)
T5 sequence (P04968 1-514 A120R/V121L/A140R/G195C/G334V/L481Q): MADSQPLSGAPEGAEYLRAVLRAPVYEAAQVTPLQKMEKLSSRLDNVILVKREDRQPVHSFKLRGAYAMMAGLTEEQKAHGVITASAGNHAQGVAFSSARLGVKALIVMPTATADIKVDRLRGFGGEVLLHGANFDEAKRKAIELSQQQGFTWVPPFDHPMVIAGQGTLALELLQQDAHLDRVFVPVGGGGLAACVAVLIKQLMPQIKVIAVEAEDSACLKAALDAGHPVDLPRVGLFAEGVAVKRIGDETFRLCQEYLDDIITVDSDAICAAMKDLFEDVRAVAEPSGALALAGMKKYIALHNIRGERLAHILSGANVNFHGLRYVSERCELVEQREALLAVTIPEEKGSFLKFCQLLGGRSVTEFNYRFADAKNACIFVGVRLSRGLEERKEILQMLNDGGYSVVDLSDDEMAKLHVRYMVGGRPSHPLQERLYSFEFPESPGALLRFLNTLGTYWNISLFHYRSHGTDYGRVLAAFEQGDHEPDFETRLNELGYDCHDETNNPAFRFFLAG
Kind of assay: Threonine deaminase steady state kinetics, L481Q. The format is biochemical. The method, then:
as §1
(§3) The effects of amino acid substitutions at Leu481 in ilvA were assessed by steady state kinetic analysis in the presence and absence of L-isoleucine. Threonine deaminase polypeptides for use in in vitro kinetics studies were extracted from E. coli cells in assay buffer containing 50 mM potassium phosphate (pH7.5), 1 mM dithiothreitol (DTT), and 0.5 mM ethylenediamine-tetraacetate. A continuous assay method was employed to monitor the formation of α-ketobutyrate directly at 230 nm (ε230 (pH7.5)=540 M^−1cm^−1 whereas threonine absorption was negligible (˜1%)). The assay was initiated by adding 20 μl of crude extract diluted 1:20 v/v to the assay vessel containing L-threonine (between 2.5 mM and 50 mM) in a final volume of 1 mL. For L-isoleucine inhibition, L-isoleucine was added between 0 mM and 20 mM. The kinetic parameters were determined by fitting the data points to the equations using GraFit 4.0 software (Erithacus Software, Surrey, UK). For comparison, the kcat values of L481 alleles were normalized to the kcat value for the wild type IlvA enzyme. Enzymes represented in FIG. 7 are: wild type E. coli threonine deaminase (circles), L481Y TD enzyme (diamonds), L481F TD enzyme (triangles), and the L481T TD enzyme (squares). Table 4 also summarizes the kinetic parameters of the variant threonine deaminase enzymes produced by the various E. coli ilvA alleles.

Assay [7] deals with T6, E. coli threonine deaminase (ilvA) variant L481I, SEQ ID NO: 10 (Escherichia coli, UniProt P04968, A120R/A140R/G195C/G334V/L481I/V121L).
T6 construct: made in house; host or cells: E. coli (pSE380, crude extract)
T6 sequence (P04968 1-514 A120R/V121L/A140R/G195C/G334V/L481I): T5 sequence (P04968 1-514 A120R/V121L/A140R/G195C/G334V/L481Q) with Q481I
The assay can be described thus: Threonine deaminase steady state kinetics, L481I. It counts as biochemical. The method, then:
as §1, §3

Numbering of substitutions follows the chain as printed. pIC50: −log10 of the molar value.

One may read the pIC50 as the IC50 on a negative log10 scale, so that one unit is a factor of ten. Usually Km stands for the substrate concentration at which the rate is half of its maximum.

T4 sequence (P04968 whole entry A120R/V121L/A140R/G195C/G334V/L481E): as the sequence (P04968 whole entry A120R/V121L/A140R/G195C/G334V) above, with L481E counted along it

As to `CC[C@H](C)[C@H](N)C(=O)O` [L-isoleucine], the pIC50 in assay [1] was 3.30; in assay [2], 4.25; in assay [3] it was 3.19; in assay [4] it was 3.10; in assay [5] it was 3.35; in assay [6], 3.73. For the same compound, in assay [7], the pIC50 was 3.87.

On to `C[C@@H](O)[C@H](N)C(=O)O` [L-threonine], for which the Km was 3.6 mM in assay [1] (read-out: Km^Thr); 8.3 mM in assay [2] (read-out: Km^Thr, E. coli wt, pMON25858, pH 7.5, L-threonine 2.5-50 mM); 8.8 mM in assay [3] (read-out: Km^Thr, L481P, pMON25864, pH 7.5, L-threonine 2.5-50 mM); 4 mM in assay [4] (read-out: Km^Thr, L481F, pMON25857, pH 7.5, L-threonine 2.5-50 mM); 3.9 mM in assay [5] (read-out: Km^Thr, L481E, pMON25860, pH 7.5, L-threonine 2.5-50 mM); 8.8 mM in assay [6] (read-out: Km^Thr, L481Q, pMON25865, pH 7.5, L-threonine 2.5-50 mM). For the same compound, in assay [7] (read-out: Km^Thr, L481I, pMON25861, pH 7.5, L-threonine 2.5-50 mM), the Km was 7.6 mM. Also, the “Hill coefficient (n), substrate binding” value in assay [6] (L481Q, pMON25865, positive cooperativity) turned out to be 1.6; in assay [7] (L481I, pMON25861, positive cooperativity), 1.6.
